The subject of assay [1] is Streptococcus pneumoniae ATCC 49619. Put plainly: MIC against Streptococcus pneumoniae ATCC 49619 (trimethoprim- and penicillin-susceptible reference strain). Format: cell-based. As for the experimental part: The following Tables 1 and 2 contain inhibitory concentrations determined in the above test for representative members of the class of compound defined by formula I. The following microorganisms were tested: Col. 1: […]

The target in assay [2] is purified DHFR of strain Spn1/1 (Streptococcus pneumoniae serotype 4, UniProt Q54801, E20D/I100L/L135F/P70S/Q81H). The experiment in a line: biochemical. The source says: Col. 3: DHFR Spn1/1; μM)—the IC50-values in μM against the purified DHFR of the above strain Spn1/1; of Streptococcus pneumoniae.
Assay [3] concerns Streptococcus pneumoniae 1/1. Put plainly: MIC against Streptococcus pneumoniae 1/1 (trimethoprim- and penicillin-resistant clinical isolate, serotype 6). Format: cell-based. As for the experimental part:
The following Tables 1 and 2 contain inhibitory concentrations determined in the above test for representative members of the class of compound defined by formula I. The following microorganisms were tested: […]
Col. 2: MIC Spn1/1; μg/ml (Streptococcus pneumoniae 1/1, Trimethoprim- and Penicillin-resistant, Serotype 6; clinical isolate, stored at −80° C.). Lit.: H. Locher et al., Can. J. Infect. Dis. 6: Suppl. C, p 469C.

Setting [4] is: ATCC49619, Streptococcus pneumoniae ATCC 49619, trimethoprim- and penicillin-susceptible, read-out: Spn 49619 MIC.
Setting [5] is: Streptococcus pneumoniae 1/1, trimethoprim- and penicillin-resistant, serotype 6, read-out: Spn 1/1 MIC.

Molecules are shown by their SMILES. In brackets after ≈: the same amount, converted by molar mass. Like-named read-outs stand apart in the source and are kept apart here.

Chain of purified DHFR of strain Spn1/1 (Q54801 whole entry E20D/P70S/Q81H/I100L/L135F): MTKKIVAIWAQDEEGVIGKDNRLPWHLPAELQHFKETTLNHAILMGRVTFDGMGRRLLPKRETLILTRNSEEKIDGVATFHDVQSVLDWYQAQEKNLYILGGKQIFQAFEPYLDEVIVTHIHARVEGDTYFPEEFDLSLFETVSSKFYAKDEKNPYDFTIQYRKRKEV

Take `CCn1cc(CN2CCOCC2)c2c(OCC3CC3)cc(Cc3cnc(N)nc3N)cc21` [Example 10a, 5-(4-Cyclopropylmethoxy-1-ethyl-3-morpholin-4-ylmethyl-1H-indol-6-ylmethyl)-pyrimidine-2,4-diamine]: the MIC turned out to be 0.25 µg/mL (≈ 0.573 µM) in assay [1] (setting [4]) and 8 µg/mL (≈ 18.3 µM) in assay [3] (setting [5]). Also, half-maximal inhibition in assay [2] (IC50) was put at 0.18 µM.
The matching figures for `CCn1cc(CN2CCOCC2)c2c(OS(=O)(=O)C(C)C)cc(Cc3cnc(N)nc3N)cc21` [Example 10b, Propane-2-sulfonic acid 6-(2,4-diamino-pyrimidin-5-ylmethyl)-1-ethyl-3-morpholino-4-ylmethyl-1H-indol-4-ester]: 0.5 µg/mL (≈ 1.02 µM), 8 µg/mL (≈ 16.4 µM) and 0.11 µM.
On the same counts, the results for `CCn1cc(CN2CCSCC2)c2c(OS(=O)(=O)C(C)C)cc(Cc3cnc(N)nc3N)cc21` [Example 10c, Propane-2-sulfonic acid 6-(2,4-diamino-pyrimidin-5-ylmethyl)-1-ethyl-3-thiomorpholin-4-ylmethyl-1H-indol-4-yl ester] are 1 µg/mL (≈ 1.98 µM), 4 µg/mL (≈ 7.93 µM) and 0.16 µM.
On the same counts, the results for `CCn1cc(CN2CCOCC2)c2c(OS(=O)(=O)CC3CC3)cc(Cc3cnc(N)nc3N)cc21` [Example 10e, Cyclopropyl-methanesulfonic acid 6-(2,4-diamino-pyrimidin-5-ylmethyl)-1-ethyl-3-morpholin-4-ylmethyl-1H-indol-4-yl ester] are 0.125 µg/mL (≈ 0.25 µM), 4 µg/mL (≈ 7.99 µM) and 0.0048 µM.
Turning to `CCn1cc(C=O)c2c(OS(=O)(=O)C(C)C)cc(Cc3cnc(N)nc3N)cc21` [Example 11, Propane-2-sulfonic acid 6-(2,4-diamino-pyrimidin-5-ylmethyl)-1-ethyl-3-formyl-1H-indol-4-yl ester], the MIC is 0.25 µg/mL (≈ 0.599 µM) in assay [1] (Streptococcus pneumoniae, ATCC49619, read-out: Spn 49619 MIC) and greater than 8 µg/mL in assay [3] (Streptococcus pneumoniae, 1/1, read-out: Spn 1/1 MIC). Inhibition in assay [2] was half-maximal at 0.093 µM (IC50).
In the case of `CCn1cc(C)c2c(OS(=O)(=O)C(C)C)cc(Cc3cnc(N)nc3N)cc21` [Example 12a, Propane-2-sulfonic acid 6-(2,4-diamino-pyrimidin-5-ylmethyl)-1-ethyl-3-methyl-1H-indol-4-yl ester], the MIC turned out to be 0.125 µg/mL (≈ 0.31 µM) in assay [1] (setting [4]) and 4 µg/mL (≈ 9.91 µM) in assay [3] (setting [5]). Also, the IC50 (usually the concentration needed to halve the response being measured) in assay [2] was found to be 0.015 µM.
On the same counts, the results for `CCn1cc(C)c2c(OS(=O)(=O)CC3CC3)cc(Cc3cnc(N)nc3N)cc21` [Example 12b, Cyclopropyl-methanesulfonic acid 6-(2,4-diamino-pyrimidin-5-ylmethyl)-1-ethyl-3-methyl-1H-indol-4-yl ester] are no more than 0.015 µg/mL, 4 µg/mL (≈ 9.63 µM) and 0.0037 µM.
For the compound `CCn1cc(Br)c2c(OCC3CC3)cc(Cc3cnc(N)nc3N)cc21` [Example 13, 5-(3-Bromo-4-cyclopropylmethoxy-1-ethyl-1H-indol-6-ylmethyl)-pyrimidine-2,4-diamine], the results for the MIC in assay [1] (setting [4]) and in assay [3] (setting [5]) were 0.125 µg/mL (≈ 0.3 µM) and 4 µg/mL (≈ 9.61 µM), respectively. This compound also registered a 50% inhibitory concentration (IC50) in assay [2] of 0.042 µM.
Regarding `CCOc1cc(Cc2cnc(N)nc2N)cc2c1cc(C)n2CC` [Example 15a, 5-(4-Ethoxy-1-ethyl-2-methyl-1H-indol-6-ylmethyl)-pyrimidine-2,4-diamine], the MIC in assay [1] (setting [4]) is 0.25 µg/mL (≈ 0.768 µM); in assay [3] (setting [5]), 8 µg/mL (≈ 24.6 µM). This compound displayed a concentration for half-maximal inhibition (IC50) in assay [2] of 0.056 µM.
The matching figures for `CCn1c(C)cc2c(OCC3CC3)cc(Cc3cnc(N)nc3N)cc21` [Example 15b, 5-(4-Cyclopropylmethoxy-1-ethyl-2-methyl-1H-indol-6-ylmethyl)-pyrimidine-2,4-diamine]: 0.5 µg/mL (≈ 1.42 µM), 8 µg/mL (≈ 22.8 µM) and 0.02 µM.
The matching figures for `CCOc1cc(Cc2cnc(N)nc2N)cc2c1c(-c1cccc(OC)c1)cn2CC` [Example 17a, 5-[4-Ethoxy-1-ethyl-3-(3-methoxy-phenyl)-1H-indol-6-ylmethyl]-pyrimidine-2,4-diamine]: 0.5 µg/mL (≈ 1.2 µM), 8 µg/mL (≈ 19.2 µM) and 0.0063 µM.
On the same counts, the results for `CCn1cc(-c2cccc(OC)c2)c2c(OC)cc(Cc3cnc(N)nc3N)cc21` [Example 17b, 5-[1-Ethyl-4-methoxy-3-(3-methoxy-phenyl)-1H-indol-6-ylmethyl]-pyrimidine-2,4-diamine] are 0.5 µg/mL (≈ 1.24 µM), 8 µg/mL (≈ 19.8 µM) and 0.0043 µM.

The values above are taken from patent US6703397B2, “Pyrimidinyl methyl indole derivatives with antibacterial activity” (Basilea Pharmaceutica AG, priority 2000, dated 2004).
